SMILES strings stand for the structures. “Also recorded” adds a separate entry of the source.

For series [1], the system named is white matter hyperintensities (microvascular pathology). The series can be described thus: Phase 3 clinical trials of LMTM in AD: MRI total lesion volume (TLV) of white matter hyperintensities. The series is classed as in vivo, human. As to conditions: for exposure dependence of rate of progression of microvascular pathology: low dose monotherapy, FIG. 6, TLV change from baseline; for estimate: difference in increase in TLV, LMTM monotherapy vs LMTM in combination with AD symptomatic treatments: FIGS. 7A and B, no unit printed at the table; for estimate: difference in increase in Total Lesion volume (TLV), LMTM monotherapy vs LMTM in combination with symptomatic treatments for AD: AD patients, MRI. From the text:
The design and results from two large Phase 3, double-blind, controlled, randomised clinical trials of hydromethylthionine in probable AD were described elsewhere. Study TRx-237-015 (clintrials.gov NCT01689246), involved 890 mild/moderate AD patients and study TRx-237-005 (clintrials.gov NCT01689233), had 800 patients with mild AD meeting NIA/AA diagnostic criteria for probable AD. Eligible patients were aged less than 90 years. Patients were excluded if they had: a recent history of poorly controlled hypertension, or clinically significant cardiovascular disease (such as hospitalization for acute coronary syndrome or symptoms consistent with angina pectoris), or a modified Hachinski ischemic score of >4. Patients were also excluded if significant vascular pathology was seen on brain MRI, including large confluent white matter hyperintensities that would lead to a diagnosis other than probable AD. A detailed list of all inclusion and exclusion criteria for both trials is available in the supplementary materials. FDG-PET was performed at baseline in only a subgroup of TRx-237-015 subjects (n=198) but was required for all participants in TRx-237-005 if the appropriate imaging facilities were available at the study site. Of 1690 participants enrolled in both studies, 794 had available FDG-PET scans at baseline.
In this trial only GE, Siemens, or Philips (1.5-Tesla and 3.0-Tesla) machines were used to reduce the variability in the imaging data. The MRI sequences utilised in this protocol were based on the ADNI protocol. The recommended range of acquisition parameters for individual sequences for GE, Siemens, and Philips MRI machines were developed after technical evaluation forms from all sites. The following sequences were included: FLAIR: This sequence allows assessment of other clinically significant focal intracranial pathology and for detection and quantification of WMHs; Unenhanced T1-weighted, 3-dimensional sequence (e.g., MP RAGE or SPGR) were used for evaluation of the whole brain, ventricular and hippocampal volumes and WMH.
Brain MRI derived WMHs were quantified using the Lesion Growth Algorithm (LGA) part of the Lesion Segmentation Toolbox (LST [28]) which is an automated method for extracting WMH and has been validated in various datasets. This algorithm uses T1 and FLAIR MR images to classify voxels, with T1 images used to segment tissue classes white matter (WM), grey matter (GM), cerebrospinal fluid (CSF) and fluid attenuated inversion recovery (FLAIR) imaging used to determine areas of hyperintense signal (i.e., WMH). WMH data are provided as whole-brain total lesion volume (TLV), measured in cm^3.
Exposure dependence groups were defined in accordance with the methods described in more detail in WO2020/020751 discussed hereinbefore.

The test system of series [2] is Alzheimer's disease. To be noted: monotherapy vs combination with AChEIs and/or memantine; cited from earlier work.
For series [3], the target named is tau aggregation (Homo sapiens, UniProt P10636). To be noted: in vitro (LMTM: in vitro and in vivo); cited from earlier work.
For series [4] the following is noted: compared with the MT+ form; cited from earlier work.
The conditions of series [5]: cited from earlier work.
For series [6], the system named is tau pathology. As to conditions: transgenic mouse tau models; brain concentrations consistent with human oral dosing; cited from earlier work.
Series [7] has as its system PHFs from Alzheimer's disease brain tissue. As to conditions: cited from earlier work.

tau aggregation, sequence (P10636 whole entry): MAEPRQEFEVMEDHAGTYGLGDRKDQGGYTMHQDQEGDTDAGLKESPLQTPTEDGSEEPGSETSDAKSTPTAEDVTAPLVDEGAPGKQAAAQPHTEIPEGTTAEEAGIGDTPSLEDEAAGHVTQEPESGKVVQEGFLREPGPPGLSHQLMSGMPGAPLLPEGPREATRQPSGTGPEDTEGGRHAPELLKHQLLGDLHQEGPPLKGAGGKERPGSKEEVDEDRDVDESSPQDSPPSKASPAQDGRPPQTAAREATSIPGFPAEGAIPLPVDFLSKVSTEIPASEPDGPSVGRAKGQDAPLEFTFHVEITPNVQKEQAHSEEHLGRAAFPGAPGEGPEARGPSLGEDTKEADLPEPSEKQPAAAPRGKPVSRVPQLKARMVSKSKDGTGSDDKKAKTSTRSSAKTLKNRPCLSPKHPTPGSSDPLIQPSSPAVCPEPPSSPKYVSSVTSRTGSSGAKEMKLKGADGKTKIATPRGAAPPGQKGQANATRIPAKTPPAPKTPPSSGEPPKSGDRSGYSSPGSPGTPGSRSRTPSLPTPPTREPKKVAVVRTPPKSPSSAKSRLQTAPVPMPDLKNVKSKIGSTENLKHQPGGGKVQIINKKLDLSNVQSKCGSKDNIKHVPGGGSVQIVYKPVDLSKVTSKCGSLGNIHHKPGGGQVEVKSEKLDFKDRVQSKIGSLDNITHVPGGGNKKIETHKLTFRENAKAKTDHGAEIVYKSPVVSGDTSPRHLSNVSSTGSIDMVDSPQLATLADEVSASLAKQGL

Regarding `CN(C)c1ccc2c(c1)Sc1cc(N(C)C)ccc1N2` [LMT, N3,N3,N7,N7-tetramethyl-10H-phenothiazine-3,7-diamine], the “exposure dependence of rate of progression of microvascular pathology” value in series [1] is “exposure-dependent reduction in progression of microvascular pathology”.
Take `CN(C)c1ccc2c(c1)Sc1cc(N(C)C)ccc1N2.CS(=O)(=O)O.CS(=O)(=O)O` [LMTM, N,N,N′,N′-tetramethyl-10H-phenothiazine-3,7-diaminium bis(hydromethanesulfonate)]: the “estimate: difference in increase in TLV, LMTM monotherapy vs LMTM in combination with AD symptomatic treatments” value was −0.3494 in series [1] (4 mg b.i.d. (low dose group)) and −0.3865 in series [1] (100 mg b.i.d., high dose (mean of high doses, 150-250 mg/day)). For the same molecule, the “estimate: difference in increase in Total Lesion volume (TLV), LMTM monotherapy vs LMTM in combination with symptomatic treatments for AD” value in series [1] (4 mg b.i.d. (low dose)) was -0.3494 mL; in series [1] (100 mg b.i.d. (high dose)) it was -0.3865 mL. For the same molecule, the “increase in Total Lesion volume, monotherapy vs combination with symptomatic treatments for AD” value in series [1] (high dose and low dose groups, statistically significant difference) is listed as “less increase in Total Lesion volume; also recorded: less increase in TLV”. The “exposure dependence of rate of progression of microvascular pathology” value in series [1] is given as “exposure-dependent difference in rate of progression of microvascular pathology”. For the same molecule, in series [2], the “treatment benefit in AD according to the trial criteria” value was “restricted to patients taking LMTM as monotherapy”. In series [3], the “tau aggregation inhibitor activity” value is “retains TAI activity in vitro and in vivo”. In addition, the “absorption” value in series [4] is recorded as “not subject to the absorption limitations of the MT^+ form”. Moreover, the “pharmaceutic properties: solubility and pKa” value in series [5] was “superior pharmaceutic properties in terms of solubility and pKa”.
Take `CN(C)c1ccc2nc3ccc(=[N+](C)C)cc-3sc2c1` [MT, Methylthioninium]: the “tau pathology and behavioural deficits” value in series [6] was “reduces tau pathology and associated behavioural deficits”. Also, the “tau aggregation inhibitor activity” value in series [3] is recorded as “acts as a tau aggregation inhibitor in vitro”. Also, the “dissolution of PHFs” value in series [7] was “dissolves PHFs from Alzheimer's disease brain tissue”.
